Counter-ions that a name gives are not always drawn.
Target: T1, Tau P301L (Homo sapiens, UniProt P10636, P618L)
T1 construct: expressed in transfected cells
Assay: In vitro tau degradation assay in CHOK1 Tau P301L cells (sarkosyl insoluble tau, WES)
Assay type: cell-based
Conditions: CHO-K1; CHOK1 Tau P301L cells; remaining tau in sarkosyl insoluble pellet; 48 hours with test compound at 1 μM, doxycycline removed for last 24 hours; relative to DMSO doxycycline control; read-out: Tau Protein Degradation effect at 1 μM
Experimental: Exemplary bifunctional molecules of the present disclosure are represented by the structures in Table 1, which includes associated data. In vitro tau protein degradation data in CHOK1 Tau P301L cells, as described below, is reported based on the remaining tau protein in the sarkosyl insoluble pellet following treatment of cells for 48 hours with test compound at the 1 μM concentration where the last 24 hours doxycycline was removed. The data are represented relative to DMSO doxycycline control: • A ≤50% of tau protein remaining (>50% of tau protein degraded) • B >50% of tau protein remaining ([…] of tau protein degraded)
Data for compounds in Table 1 was generated using in vitro tau Degradation Assay protocol as described in Methods for FIGS. 2A and 2B below.
FIGS. 2A and 2B. (2A) Tau expression was induced by addition (+) of doxycycline (1 μg/ml) to ChoK1-Tau P301L clone D1.
In vitro tau Degradation Assay for FIGS. 2A and 2B. T-Rex CHOK1 cells are maintained in Ham's F-12 Nutrient Mix (ThermoFisher) plus 10% Fetal Bovine Serum Tetracycline Negative (Corning) with 10 ug/mL Blasticidin S HCl (Gibco) and 200 ug/mL Zeocin (100 mg/mL, Invitrogen). A stable clone expressing Tau P301L in the presence of doxycycline (1 μg/ml), clone D1 was selected. Compounds were diluted to indicated concentrations and used to treat cells for the indicated times. Cells were harvested from either 96, 24, 6, or 10 cm dishes coated with Poly-D-Lysine (Corning) in ice cold PBS or Buffer H+HALT Protease and phosphatase inhibitors (Thermofisher). Sarkosyl Insoluble tau was isolated as described in Eckermann et al. and Greenberg and Davies, accordingly. WES™ capillary electrophoresis analysis was performed on the Sarkosyl Insoluble tau fraction using Tau1 antibody (Milipore) unless otherwise indicated, as specified in the manufacturers specification (ProteinSimple).

T1 sequence (P10636 1-441 isoform P10636-8 P301L): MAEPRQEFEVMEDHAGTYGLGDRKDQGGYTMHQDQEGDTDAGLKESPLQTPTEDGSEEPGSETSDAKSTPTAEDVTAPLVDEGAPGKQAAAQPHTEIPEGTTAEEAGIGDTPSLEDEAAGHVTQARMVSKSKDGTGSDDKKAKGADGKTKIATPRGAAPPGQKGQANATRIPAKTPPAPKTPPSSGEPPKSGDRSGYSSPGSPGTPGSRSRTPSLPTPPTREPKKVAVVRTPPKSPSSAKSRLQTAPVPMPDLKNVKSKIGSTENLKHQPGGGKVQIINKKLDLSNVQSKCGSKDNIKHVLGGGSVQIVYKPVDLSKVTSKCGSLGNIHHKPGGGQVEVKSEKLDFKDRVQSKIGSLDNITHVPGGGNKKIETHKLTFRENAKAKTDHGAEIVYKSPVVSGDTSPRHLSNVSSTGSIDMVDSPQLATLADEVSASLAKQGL

Compound | remaining activity at 1 µM [%]
O=C1CCC(N2C(=O)c3cc(F)c(N4CCN(CCC5CCN(c6ncc(-c7c(F)cc8c9cnccc9n(CC(F)(F)F)c8c7F)cn6)CC5)CC4)cc3C2=O)C(=O)N1 (stereo not drawn) [Compound 645, 5-(4-(2-(1-(5-(6,8-difluoro-5-(2,2,2-trifluoroethyl)-5H-pyrido[4,3-b]indol-7-yl)pyrimidin-2-yl)piperidin-4-yl)ethyl)piperazin-1-yl)-2-(2,6-dioxopiperidin-3-yl)-6-fluoroisoindoline-1,3-dione] | < 50
O=C1CCC(N2C(=O)c3ccc(N4CCN(CC5CC6(CCN(c7ncc(-c8ccc9c%10cnccc%10n(C(F)F)c9c8)cc7F)CC6)C5)CC4)cc3C2=O)C(=O)N1 (stereo not drawn) [Compound 614, 5-(4-((7-(5-(5-(difluoromethyl)-5H-pyrido[4,3-b]indol-7-yl)-3-fluoropyridin-2-yl)-7-azaspiro[3.5]nonan-2-yl)methyl)piperazin-1-yl)-2-(2,6-dioxopiperidin-3-yl)isindoline-1,3-dione] | > 50
CC1c2ccc(-c3ccc4c5cnccc5n(C(F)F)c4c3)cc2CCN1CCCCCOc1ccc2c(c1)C(=O)N(C1CCC(=O)NC1=O)C2=O (stereo not drawn) [Compound 603, 5-((5-(6-(5-(difluoromethyl)-5H-pyrido[4,3-b]indol-7-yl)-1-methyl-3,4-dihydroisoquinolin-2(1H)-yl)pentyl)oxy)-2-(2,6-dioxopiperidin-3-yl)isoindoline-1,3-dione] | > 50
O=C1CCC(N2C(=O)c3ccc(N4CCN(C5CC6(CCN(c7ncc(-c8ccc9c%10cnccc%10n(C(F)F)c9c8)cc7F)CC6)C5)CC4)cc3C2=O)C(=O)N1 (stereo not drawn) [Compound 613, 5-(4-(7-(5-(5-(difluoromethyl)-5H-pyrido[4,3-b]indol-7-yl)-3-fluoropyridin-2-yl)-7-azaspiro[3.5]nonan-2-yl)piperazin-1-yl)-2-(2,6-dioxopiperidin-3-yl)isoindoline-1,3-dione] | > 50
CN1CCc2[nH]c3cc(-c4cnc(N5CCC(CCN6CCN(c7cc8c(cc7F)C(=O)N(C7CCC(=O)NC7=O)C8=O)CC6)CC5)c(F)c4)ccc3c2C1 (stereo not drawn) [Compound 647, 2-(2,6-dioxopiperidin-3-yl)-5-fluoro-6-(4-(2-(1-(3-fluoro-5-(2-methyl-2,3,4,5-tetrahydro-1H-pyrido[4,3-b]indol-7-yl)pyridin-2-yl)piperidin-4-yl)ethyl)piperazin-1-yl)isoindoline-1,3-dione] | > 50
O=C1CCC(N2C(=O)c3ccc(OCCC4CCN(C[C@H]5C[C@H](Oc6ncc(-c7ccc8c9cnccc9n(C(F)F)c8c7)cc6F)C5)CC4)cc3C2=O)C(=O)N1 (stereo partly drawn) [Compound 636, 5-(2-(1-(((1r,3r)-3-((5-(5-(difluoromethyl)-5H-pyrido[4,3-b]indol-7-yl)-3-fluoropyridin-2-yl)oxy)cyclobutyl)methyl)piperidin-4-yl)ethoxy)-2-(2,6-dioxopiperidin-3-yl)isoindoline-1,3-dione] | > 50

Same assay, conditions: CHO-K1; remaining tau protein in sarkosyl insoluble pellet; CHOK1 Tau P301L cells treated 48 hours with test compound at 1 μM, doxycycline removed for the last 24 hours; relative to DMSO doxycycline control; read-out: Tau Protein Degradation effect at 1 μM

Compound | remaining activity at 1 µM [%]
Cn1c2ccncc2c2ccc(-c3ccc(OC4CN(C5CCN(CCCCCOc6ccc7c(c6)C(=O)N(C6CCC(=O)NC6=O)C7=O)CC5)C4)nc3)cc21 (stereo not drawn) [Compound 424, 2-(2,6-dioxopiperidin-3-yl)-5-((5-(4-(3-((5-(5-methyl-5H-pyrido[4,3-b]indol-7-yl)pyridin-2-yl)oxy)azetidin-1-yl)piperidin-1-yl)pentyl)oxy) isoindoline-1,3-dione] | > 50
CN(C)c1ccn2cc(-c3ccc(OCCOCCOCCOc4ccc5c(c4)C(=O)N(C4CCC(=O)NC4=O)C5=O)cc3)nc2c1 (stereo not drawn) [Compound 440, 5-(2-(2-(2-(4-(7-(dimethylamino)imidazo [1,2-a]pyridin-2-yl)phenoxy)ethoxy)ethoxy)ethoxy)-2-(2,6-dioxopiperidin-3-yl)isoindoline-1,3-dione] | > 50
Cn1c2ccncc2c2ccc(-c3ccc(OC4CC5(C4)CN(C(=O)CN4CCN(CC6CN(c7ccc8c(c7)C(=O)N(C7CCC(=O)NC7=O)C8=O)C6)CC4)C5)nc3)cc21 (stereo not drawn) [Compound 458, 2-(2,6-dioxopiperidin-3-yl)-5-(3-((4-(2-(6-((5-(5-methyl-5H-pyrido[4,3-b]indol-7-yl)pyridin-2-yl)oxy)-2-azaspiro [3.3]heptan-2-yl)-2-oxoethyl)piperazin-1-yl)methyl)azetidin-1-yl)isoindoline-1,3-dione] | > 50
O=C1CCC(N2C(=O)c3ccc(OCCCCCN4CCC(OC5CN(c6ncc(-c7ccc8c9cnccc9n(C(F)F)c8c7)cc6C(F)(F)F)C5)CC4)cc3C2=O)C(=O)N1 (stereo not drawn) [Compound 442, 5-[5-[14-[1-[5-[5-(Difluoromethyl)pyrido[4,3-b]indol-7-yl]-3-(trifluoromethyl)-2-pyridyl]azetidin-3-yl]oxy-1-piperidyl]pentoxy]-2-(2,6-dioxo-3-piperidyl)isoindoline-1,3-dione formate] | < 50
Cc1ncsc1-c1ccc([C@H](C)NC(=O)[C@@H]2C[C@@H](O)CN2C(=O)[C@@H](c2cc(N3CCN(CCO[C@H]4C[C@H](Oc5ccc(-c6ccc7c8cnccc8n(C)c7c6)cn5)C4)CC3)no2)C(C)C)cc1 [Compound 391, (2S,4R)-4-hydroxy-1-((R)-3-methyl-2-(3-(4-(2-((1r,3R)-3-((5-(5-methyl-5H-pyrido[4,3-b]indol-7-yl)pyridin-2-yl)oxy)cyclobutoxy)ethyl)piperazin-1-yl)isoxazol-5-yl)butanoyl)-N-((S)-1-(4-(4-methylthiazol-5-yl)phenyl)ethyl) pyrrolidine-2-carboxamide] | < 50
O=C1CCC(N2C(=O)c3ccc(N4CCN(CCC5CCN(c6ncc(-c7ccc8c9cnccc9n(CC(F)(F)F)c8n7)cc6F)CC5)CC4)cc3C2=O)C(=O)N1 (stereo not drawn) [Compound 673, 2-(2,6-dioxopiperidin-3-yl)-5-(4-(2-(1-(3-fluoro-5-(9-(2,2,2-trifluoroethyl)-9H-pyrrolo[2,3-b:4,5-c′]dipyridin-2-yl)pyridin-2-yl)piperidin-4-yl)ethyl)piperazin-1-yl)isoindoline-1,3-dione] | < 50
O=C1CCC(N2C(=O)c3ccc(OCCC4CCN(C[C@H]5C[C@H](Oc6cc(Nc7ccc8ncccc8n7)ccn6)C5)CC4)cc3C2=O)C(=O)N1 (stereo partly drawn) [Compound 577, 5-(2-(1-(((1r,3r)-3-((4-((1,5-napthyridin-2-yl)amino)pyridin-2-yl)oxy)cyclobutyl)methyl)piperidin-4-yl)ethoxy)-2-(2,6-dioxopiperidin-3-yl)isoindoline-1,3-dione] | > 50
Nc1cccc2cnc(-n3ccc4cc(OCCOCCOCCOCCOCCOc5ccc6c(c5)C(=O)N(C5CCC(=O)NC5=O)C6=O)ncc43)cc12 (stereo not drawn) [Compound 352, 5-((14-((1-(5-aminoisoquinolin-3-yl)-1H-pyrrolo[2,3-c]pyridin-5-yl)oxy)-3,6,9, 12-tetraoxatetradecyl)oxy)-2-(2,6-dioxo-piperidin-3-yl) isoindoline-1,3-dione] | < 50
Cc1cc2c(cn1)c1ccc(-c3cnc(N4CCC(CCN5CCN(c6ccc7c(c6)C(=O)N(C6CCC(=O)NC6=O)C7=O)CC5)CC4)c(F)c3)cc1n2C (stereo not drawn) [Compound 561, 5-(4-(2-(1-(5-(3,5-dimethyl-5H-pyrido[4,3-b]indol-7-yl)-3-fluoropyridin-2-yl)piperidin-4-yl)ethyl)piperazin-1-yl)-2-(2,6-dioxopiperidin-3-yl)isoindoline-1,3-dione] | < 50
Cc1cnc(Nc2ccc3cnccc3c2)cc1OCCOCCOCCOCCOc1ccc2c(c1)C(=O)N(C1CCC(=O)NC1=O)C2=O (stereo not drawn) [Compound 369, 2-(2,6-dioxopiperidin-3-yl)-5-(2-(2-(2-(2-((2-(isoquinolin-6-ylamino)-5-methylpyridin-4-yl)oxy)ethoxy)ethoxy)ethoxy)ethoxy) isoindoline-1,3-dione] | < 50
N#Cc1cc(-c2ccc3c4cnccc4n(C(F)F)c3c2)cnc1N1CCC(CCN2CCN(c3ccc4c(c3)CN(C3CCC(=O)NC3=O)C4=O)CC2)CC1 (stereo not drawn) [Compound 475, 5-(5-(difluoromethyl)-5H-pyrido[4,3-b]indol-7-yl)-2-(4-(2-(4-(2-(2,6-dioxopiperidin-3-yl)-1-oxoisoindolin-5-yl)piperazin-1-yl)ethyl)piperidin-1-yl)nicotinonitrile] | > 50

Same assay, conditions: remaining tau protein in sarkosyl insoluble pellet; CHOK1 Tau P301L cells treated 48 hours with test compound at 1 μM, doxycycline removed for the last 24 hours; relative to DMSO doxycycline control

Compound | Tau Protein Degradation effect at 1 μM
O=C1CCC(N2C(=O)c3ccc(N4CCN(CCCC5CCN(CC6CC(Oc7ccc(-c8ccc9c(c8)[nH]c8ccncc89)cn7)C6)CC5)CC4)cc3C2=O)C(=O)N1 (stereo not drawn) [Compound 376, 5-(4-(3-(1-(((1r,3r)-3-((5-(5H-pyrido[4,3-b]indol-7-yl)pyridin-2-yl)oxy)cyclobutyl)methyl)piperidin-4-yl)propyl)piperazin-1-yl)-2-(2,6-dioxopiperidin-3-yl)isoindoline-1,3-dione] | B (>50% of tau protein remaining (≥50% of tau protein degraded))

From patent publication US11912699B2, “Tau-protein targeting compounds and associated” (Arvinas Operations, Inc., priority 2019, dated 2024)
